Values joined by “and” are separate entries in the source; they are usually repeats but may differ in a detail not shown here. Identical values can stand only once.
Legend:
Assay type in all cases: in vivo, human
[1] = system: osteoarthritis of the knee; experiment: Second Phase 2 study: WOMAC stiffness subscale score; details: for WOMAC Stiffness Subscale Scores, % of improvement from Placebo / WOMAC Stiffness Subscale Scores, % of improvement from baseline / WOMAC Stiffness Subscale Scores, Changes from Baseline (LS Mean) / WOMAC Stiffness Subscale Scores, Different from oral ibuprofen (LS Mean) / WOMAC Stiffness Subscale Scores, Different from placebo (LS Mean) / WOMAC Stiffness Subscale Scores, Week 12 (LS Mean) / WOMAC Stiffness Subscale Scores, % of improvement from Oral Ibuprofen: Week 12
From the text: For subjects with bilateral knee pain, both knees will be treated, but the most symptomatic knee (ie, the most painful knee as measured by the Western Ontario and McMaster University Osteoarthritis Index [WOMAC® 3.1] pain subscale score at Screening) will be designated as the target knee for efficacy analyses. For subjects with unilateral knee pain, only the symptomatic (target) knee will be treated.
The VAS version of the WOMAC will be used for the Primary and Secondary Efficacy Endpoints. Efficacy endpoints will be assessed at Screening and Baseline (Day 1) and at the Week 2, Week 4, Week 8, and Week 12/EOS visits.
4.9.2. Secondary Efficacy Endpoints: • 1. Change from Baseline in the WOMAC (VAS) pain subscale score for the target knee at 2, 8, and 12 weeks of treatment; • 2. Change from Baseline in the WOMAC (VAS) stiffness subscale scores for the target knee and WOMAC (VAS) functional ability subscale scores at 2, 4, 8, and 12 weeks of treatment; • 3. Change from Baseline in the overall WOMAC (VAS) score at 2, 4, 8, and 12 weeks of treatment; • 4. Subject's global assessment of disease status of the target knee at 2, 4, 8, and 12 weeks of treatment; • 5. Subject's global assessment of response to therapy of the target knee at 2, 4, 8, and 12 weeks of treatment; • 6. Amount of rescue medication (acetaminophen) consumed per day for target knee pain.
The Secondary Efficacy Endpoints, change from Baseline in the WOMAC subscale scores for pain, stiffness, and functional ability, and overall WOMAC score at 2, 4, 8, and 12 weeks of treatment, will be analyzed using the same methods as for the Primary Efficacy Endpoint.

[2] = system: osteoarthritis of the knee; experiment: Second Phase 2 study: Investigator's global assessment of disease status (IGADS); details: Week 12; for IGADS: Good and Very good / IGADS: Poor and Very Poor / IGADS: fair: first 130 subjects; for IGADS, Good and Very good / IGADS, Poor and Very Poor / IGADS, fair: all subjects
[3] = system: osteoarthritis of the knee; experiment: Second Phase 2 study: Investigator's assessment of response to therapy (IART); details: Week 12; for IART: Good and Very good / IART: Poor and Very Poor / IART: fair: first 130 subjects; for IART, Good and Very good / IART, Poor and Very Poor / IART, fair: all subjects
From the text: 4.9.3. Exploratory Efficacy Endpoints: • 1. Investigator's global assessment of response to therapy of the target knee at 2, 4, 8, and 12 weeks of treatment; • 2. Change from Baseline over time in overall WOMAC (VAS) score for the target knee after the treatment is stopped for 2 weeks.

[4] = 8.75 mg/knee BID (n = 24), first 130 subjects
[5] = 17.5 mg/knee BID (n = 19), first 130 subjects
[6] = all subjects, 4.375 mg/knee BID, n = 49
[7] = all subjects, 8.75 mg/knee BID, n = 54
[8] = all subjects, 17.5 mg/knee BID, n = 52

Structure (SMILES): CCN(CC)CCOC(=O)C(C)c1ccc(CC(C)C)cc1 (stereo not drawn) [2-(diethylamino)ethyl 2-(4-isobutylphenyl)propionate]
- WOMAC Stiffness Subscale Scores, % of improvement from Placebo [1, 4]: −12.7%
- WOMAC Stiffness Subscale Scores, % of improvement from baseline [1, 4]: −38.9%
- WOMAC Stiffness Subscale Scores, Changes from Baseline (LS Mean) [1, 4]: −20.4 mm
- WOMAC Stiffness Subscale Scores, Different from oral ibuprofen (LS Mean) [1, 4]: 0.2 mm
- WOMAC Stiffness Subscale Scores, Different from placebo (LS Mean) [1, 4]: −6.4 mm
- WOMAC Stiffness Subscale Scores, Week 12 (LS Mean) [1, 4]: 32.0 mm
- WOMAC Stiffness Subscale Scores, % of improvement from Oral Ibuprofen [1, 5]: −21.0%
- WOMAC Stiffness Subscale Scores, % of improvement from Placebo [1, 5]: −31.3%
- WOMAC Stiffness Subscale Scores, % of improvement from baseline [1, 5]: −57.5%
- WOMAC Stiffness Subscale Scores, Changes from Baseline (LS Mean) [1, 5]: −33.1 mm
- WOMAC Stiffness Subscale Scores, Different from oral ibuprofen (LS Mean) [1, 5]: −12.4 mm
- WOMAC Stiffness Subscale Scores, Different from placebo (LS Mean) [1, 5]: −19.1 mm
- WOMAC Stiffness Subscale Scores, Week 12 (LS Mean) [1, 5]: 24.6 mm
- WOMAC Stiffness Subscale Scores, % of improvement from Oral Ibuprofen [1, 6]: 4.7%
- WOMAC Stiffness Subscale Scores, % of improvement from Placebo [1, 6]: −2.2%
- WOMAC Stiffness Subscale Scores, % of improvement from baseline [1, 6]: −34.6%
- WOMAC Stiffness Subscale Scores, Changes from Baseline (LS Mean) [1, 6]: −16.9 mm
- WOMAC Stiffness Subscale Scores, Week 12 (LS Mean) [1, 6]: 31.9 mm
- WOMAC Stiffness Subscale Scores, % of improvement from Oral Ibuprofen [1, 7]: −2.8%
- WOMAC Stiffness Subscale Scores, % of improvement from Placebo [1, 7]: −9.7%
- WOMAC Stiffness Subscale Scores, % of improvement from baseline [1, 7]: −42.1%
- WOMAC Stiffness Subscale Scores, Changes from Baseline (LS Mean) [1, 7]: −23.3 mm
- WOMAC Stiffness Subscale Scores, Different from oral ibuprofen (LS Mean) [1, 7]: −3.0 mm
- WOMAC Stiffness Subscale Scores, Different from placebo (LS Mean) [1, 7]: −6.7 mm
- WOMAC Stiffness Subscale Scores, Week 12 (LS Mean) [1, 7]: 32.0 mm
- WOMAC Stiffness Subscale Scores, % of improvement from Oral Ibuprofen [1, 8]: −8.0%
- WOMAC Stiffness Subscale Scores, % of improvement from Placebo [1, 8]: −14.9%
- WOMAC Stiffness Subscale Scores, % of improvement from baseline [1, 8]: −47.3%
- WOMAC Stiffness Subscale Scores, Changes from Baseline (LS Mean) [1, 8]: −25.2 mm
- WOMAC Stiffness Subscale Scores, Different from oral ibuprofen (LS Mean) [1, 8]: −4.9 mm
- WOMAC Stiffness Subscale Scores, Different from placebo (LS Mean) [1, 8]: −8.6 mm
- WOMAC Stiffness Subscale Scores, Week 12 (LS Mean) [1, 8]: 28.1 mm
- WOMAC Joint Stiffness Subscale Score, Week 4 ([1]; individual patient (blinded), Low Dose (2 spray/knee, 8.75 mg/knee) Cohort, Week 4): 59.5 and 62
- IGADS: Good and Very good ([2]; 4.375 mg/knee BID (n = 23)): 43.5%
- IGADS: Poor and Very Poor ([2]; 4.375 mg/knee BID (n = 23)): 4.3%
- IGADS: fair ([2]; 4.375 mg/knee BID (n = 23)): 53.2%
- IGADS: Good and Very good ([2]; 8.75 mg/knee BID (n = 24)): 41.7%
- IGADS: Poor and Very Poor ([2]; 8.75 mg/knee BID (n = 24)): 4.2%
- IGADS: fair ([2]; 8.75 mg/knee BID (n = 24)): 54.2%
- IGADS: Good and Very good ([2]; 17.5 mg/knee BID (n = 19)): 68.4%
- IGADS: Poor and Very Poor ([2]; 17.5 mg/knee BID (n = 19)): 0%
- IGADS: fair ([2]; 17.5 mg/knee BID (n = 19)): 31.6%
- IGADS, Good and Very good ([2]; 4.375 mg/knee BID, n = 49): 40.8%
- IGADS, Poor and Very Poor ([2]; 4.375 mg/knee BID, n = 49): 8.2%
- IGADS, fair ([2]; 4.375 mg/knee BID, n = 49): 51.0%
- IGADS, Good and Very good ([2]; 8.75 mg/knee BID, n = 54): 48.1%
- IGADS, Poor and Very Poor ([2]; 8.75 mg/knee BID, n = 54): 7.4%
- IGADS, fair ([2]; 8.75 mg/knee BID, n = 54): 44.4%
- IGADS, Good and Very good ([2]; 17.5 mg/knee BID, n = 52): 63.5%
- IGADS, Poor and Very Poor ([2]; 17.5 mg/knee BID, n = 52): 1.9%
- IGADS, fair ([2]; 17.5 mg/knee BID, n = 52): 34.6%
- IART: Good and Very good ([3]; 4.375 mg/knee BID (n = 23)): 39.1%
- IART: Poor and Very Poor ([3]; 4.375 mg/knee BID (n = 23)): 4.3%
- IART: fair ([3]; 4.375 mg/knee BID (n = 23)): 56.5%
- IART: Good and Very good ([3]; 8.75 mg/knee BID (n = 24)): 37.5%
- IART: Poor and Very Poor ([3]; 8.75 mg/knee BID (n = 24)): 12.5%
- IART: fair ([3]; 8.75 mg/knee BID (n = 24)): 50.0%
- IART: Good and Very good ([3]; 17.5 mg/knee BID (n = 19)): 57.9%
- IART: Poor and Very Poor ([3]; 17.5 mg/knee BID (n = 19)): 5.3%
- IART: fair ([3]; 17.5 mg/knee BID (n = 19)): 36.8%
- IART, Good and Very good ([3]; 4.375 mg/knee BID, n = 49): 40.8%
- IART, Poor and Very Poor ([3]; 4.375 mg/knee BID, n = 49): 10.2%
- IART, fair ([3]; 4.375 mg/knee BID, n = 49): 49.0%
- IART, Good and Very good ([3]; 8.75 mg/knee BID, n = 54): 50.0%
- IART, Poor and Very Poor ([3]; 8.75 mg/knee BID, n = 54): 13.0%
- IART, fair ([3]; 8.75 mg/knee BID, n = 54): 37.0%
- IART, Good and Very good ([3]; 17.5 mg/knee BID, n = 52): 61.5%
- IART, Poor and Very Poor ([3]; 17.5 mg/knee BID, n = 52): 3.8%
- IART, fair ([3]; 17.5 mg/knee BID, n = 52): 34.6%
